According to patent US9737478B2, “Treatment of malaria” (National Institutes of Health (NIH), U.S. Dept. of Health …, priority 2009, dated 2017):

Tests used:
[1] = test system: Plasmodium berghei ANKA (PbA); assay: Treatment of PbA-infected mice presenting clinical cerebral malaria (survival, motor score, parasitemia); assay type: in vivo, C57B1/6 mice; settings: for survival: mice with CM
Procedure: Eight to 10-week old C57B1/6 mice (Jackson Laboratories, ME) were inoculated intraperitoneally with 1×10^6 Plasmodium berghei ANKA (PbA) parasites expressing the GFP protein (obtained from MR4-NIH, deposited by C J Anders and A Waters). Parasitemia, body weight and rectal temperature were checked daily from day 4. […] Five tests were performed: transfer arousal, locomotor activity, tail elevation, wire maneuver and righting reflex. For each test, mice received an individual score, and the sum of scores was used to create a composite score.
PbA-infected mice presenting poor righting reflex, hypothermia and/or other clinical signs of neurological involvement such as ataxia, limb paralysis, seizures and/or roll-over were treated with artemether (Artesiane, Dafra Pharma, Belgium, a kind gift of Dr Alberto Moreno, Emory University, Atlanta, Ga.) given IP at 50 mg/kg, in combination with nimodipine (Sigma, St Louis, Mo.) or vehicle (ethanol:polyethyleneglycol (PEG) 400:saline in 1:1:8 v/v). Nimodipine was dissolved in ethanol (EMD, N.J.), dispersed with polyethyleneglycol 400 (PEG, Sigma) and then saline was added (1:1:8 v/v) and mixed thoroughly. This solution was administered intraperitoneally in three different doses: 1.3 mg/kg, 4 mg/kg and 12 mg/kg. […] Parasitemia, motor behavior and rectal temperature were checked at each timepoint and daily afterwards. After treatment, parasitemia was checked by microscopical examination of Giemsa-stained blood smears to differentiate viable from dead parasites.

[2] = test system: PbA-infected mice with clinical CM; assay: Intravital microscopy of pial vessels (closed cranial window) in PbA-infected mice with clinical CM; assay type: in vivo; settings: nimodipine 4 mg/kg IP, 30 minutes after injection
Source text: Briefly, mice were anesthetized with ketamine-xylazine, the head held on a stereotaxic frame, the scalp cut off and a 3-4 mm diameter skull opening was made in the left parietal bone using a surgical drill. The exposed area was covered with a 5 mm glass cover slip glued with dental acrylic. Carprofen and ampicillin were given for 3-5 days to prevent pain, inflammation and infection. Two weeks after surgery, mice were lightly anesthetized with isoflurane (4% for induction, 1-2% for maintenance) and held on a stereotaxic frame. A panoramic picture of the window was taken and then mice were transferred to an intravital microscope stage (customized McBain, San Diego, Calif.). Body temperature was maintained using a heating pad. […] Measurements of 6-10 pial venules (diameter range: 22-80 μm, velocity range: 2-4 mm/s) and 2-6 pial arterioles (diameter range: 18-70 μm, velocity range: 3-6 mm/s) were performed in each animal, and blood flow (Q) in each individual vessel was calculated using the equation: Q=V×(D/2)2.
The next day mice were inoculated intraperitoneally with 1×10^6 PbA-GFP pRBC. The intravital microscopy procedure was repeated daily from day 4 of infection until the mice died or were euthanized. Non-infected control mice were submitted to the same procedures. […]

CO[C@H]1O[C@@H]2O[C@@]3(C)CC[C@H]4[C@H](C)CC[C@@H]([C@H]1C)[C@@]24OO3 [artemether]
survival ([1]; artemether 50 mg/kg IP daily for 5 days plus vehicle): 32.2%
deaths occurring in the first 36 hours ([1]; vehicle-treated group (artemether plus vehicle)): 95.2%

COCCOC(=O)C1=C(C)NC(C)=C(C(=O)OC(C)C)C1c1cccc([N+](=O)[O-])c1 (stereo not shown) [nimodipine]
survival ([1]; adjunctive nimodipine at 4 and 12 mg/kg IP at 0, 12, 24, 36 h with artemether 50 mg/kg IP daily for 5 days): 60-66.6%
increase in arteriolar blood flow [2]: about 50%
